The target in assay [1] is Proto-oncogene tyrosine-protein kinase Src (Homo sapiens, UniProt P12931). In words: Inhibition of Src tyrosine kinase.
Assay [2] deals with Tyrosine-protein kinase Lck (Homo sapiens, UniProt P06239). The experiment in a line: Inhibition of p56 Lck tyrosine kinase.
Assay [3] has as its target cAMP-dependent protein kinase (PKA) (Homo sapiens, UniProt P22694+P17612+P22612). The experiment in a line: Inhibition of Protein Kinase A (PKA). Type of assay: protein assay.

Structures are written as SMILES.

Proto-oncogene tyrosine-protein kinase Src, sequence (P12931 2-536 limits assumed): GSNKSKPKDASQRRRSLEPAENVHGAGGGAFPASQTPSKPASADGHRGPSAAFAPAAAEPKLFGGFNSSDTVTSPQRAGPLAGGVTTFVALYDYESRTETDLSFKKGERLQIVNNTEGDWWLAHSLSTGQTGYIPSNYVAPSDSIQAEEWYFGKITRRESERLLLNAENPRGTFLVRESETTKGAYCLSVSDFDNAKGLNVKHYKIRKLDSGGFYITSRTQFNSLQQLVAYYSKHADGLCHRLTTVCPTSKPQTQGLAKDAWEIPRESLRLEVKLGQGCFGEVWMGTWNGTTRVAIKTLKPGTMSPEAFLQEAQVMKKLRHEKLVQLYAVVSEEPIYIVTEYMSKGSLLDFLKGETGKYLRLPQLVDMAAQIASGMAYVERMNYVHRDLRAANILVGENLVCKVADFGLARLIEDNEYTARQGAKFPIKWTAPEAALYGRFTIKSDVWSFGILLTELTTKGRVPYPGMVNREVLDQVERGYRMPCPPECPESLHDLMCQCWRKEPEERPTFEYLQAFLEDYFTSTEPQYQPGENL
Tyrosine-protein kinase Lck, sequence (P06239 whole entry): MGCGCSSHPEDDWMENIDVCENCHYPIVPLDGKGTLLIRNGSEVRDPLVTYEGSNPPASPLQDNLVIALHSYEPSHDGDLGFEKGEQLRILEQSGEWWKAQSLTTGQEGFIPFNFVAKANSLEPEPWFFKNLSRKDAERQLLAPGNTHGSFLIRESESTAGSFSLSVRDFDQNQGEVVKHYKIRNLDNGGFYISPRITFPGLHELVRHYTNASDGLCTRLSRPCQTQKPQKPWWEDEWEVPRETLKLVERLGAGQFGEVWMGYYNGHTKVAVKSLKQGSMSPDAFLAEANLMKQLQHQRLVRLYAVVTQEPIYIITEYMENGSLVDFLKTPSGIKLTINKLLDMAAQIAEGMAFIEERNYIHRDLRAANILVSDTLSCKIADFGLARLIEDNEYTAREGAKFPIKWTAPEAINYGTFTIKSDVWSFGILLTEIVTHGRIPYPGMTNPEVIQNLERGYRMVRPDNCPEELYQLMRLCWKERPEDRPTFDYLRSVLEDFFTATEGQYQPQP

Consider `Nc1ccc2c(c1)C(=O)/C(=C/c1cc(Cl)c(O)c(Cl)c1)C2=O`, for which the IC50 in assay [1] is 3.5 µM; in assay [2], 102 nM; in assay [3], 5 µM. `Nc1ccc2c(c1)C(=O)/C(=C/c1cc(Br)c(O)c(Br)c1)C2`: the IC50 in assay [2] amounted to 710 nM. Same read-out and setting: the result for `COc1ccc2c(c1)C(=O)/C(=C/c1cc(Br)c(O)c(OC)c1)C2=O` reads 880 nM; that for `COc1ccc2c(c1)C(=O)/C(=C/c1ccc(O)c(O)c1)C2=O`, 1500 nM. As for `Nc1ccc2c(c1)C(=O)/C(=C/c1cc(Br)c(O)c(Br)c1)C2=O`, the values for the IC50 in assay [1], in assay [2] and in assay [3] were 0.46 µM, 32 nM and 8 µM, respectively. With `O=C1/C(=C/c2cc(Cl)c(O)c(Cl)c2)C(=O)c2c1cccc2[N+](=O)[O-]`, the IC50 in assay [2] came out at 1400 nM.

As to `O=C1/C(=C/c2ccc(O)c(O)c2)C(=O)c2cc([N+](=O)[O-])ccc21`, the IC50 in assay [2] is more than 5000 nM.

In assay [2], `O=C1/C(=C/c2ccc(O)c(O)c2)C(=O)c2c1cccc2[N+](=O)[O-]` registered an IC50 of 5000 nM.

In assay [2], `COc1cc2c(cc1OC)C(=O)C(=Cc1cc(Br)c(O)c(Br)c1)C2=O` had an IC50 of 110 nM. Against the preceding compound, the IC50 is about 45-fold lower. In assay [2], `COc1cc2c(cc1OC)C(=O)C(=Cc1cc(Cl)c(O)c(Cl)c1)C2=O` showed an IC50 of 310 nM.

Consider `COc1cc(C=C2C(=O)c3cc(Cl)c(Cl)cc3C2=O)ccc1O`, for which the IC50 in assay [2] turned out to be 5000 nM. Regarding `Nc1ccc2c(c1)C/C(=C\c1cc(Br)c(O)c(Br)c1)C2=O`, in assay [2], half-maximal inhibition (IC50) was put at 5000 nM.

Take `O=C1/C(=C\c2cc(Br)c(O)c(Br)c2)C(=O)c2cc([N+](=O)[O-])ccc21`: the IC50 in assay [2] was more than 5000 nM. `COc1cc(C=C2C(=O)c3cc(Cl)c(Cl)cc3C2=O)cc(Br)c1O` yielded a half-inhibitory concentration (IC50) in assay [2] of 1700 nM. In other words, the single-digit micromolar range. With `COc1cc(/C=C2\C(=O)c3ccc(N)cc3C2=O)cc(OC)c1O`, in assay [2], the IC50 stood at 1700 nM. `O=C1C(=Cc2cc(Br)c(O)c(Br)c2)C(=O)c2ccccc21`: the IC50 in assay [2] is 740 nM. Compared with the last compound, the IC50 is about 2.3-fold lower. `Nc1ccc2c(c1)C(=O)/C(=C/c1ccc(O)c(O)c1)C2=O`: the 50% inhibitory concentration (IC50) in assay [2] was 600 nM. On the same count and under the same terms, to `O=C1/C(=C\c2cc(Br)c(O)c(Br)c2)C(=O)c2cc(Br)ccc21` belongs 1000 nM. As to `COc1ccc2c(c1)C(=O)/C(=C/c1cc(Br)c(O)c(Br)c1)C2=O`, the IC50 in assay [1] is more than 50 µM; in assay [2] it was 144 nM; in assay [3] it was 10 µM. Regarding `O=C1C(=Cc2ccc(O)c(O)c2)C(=O)c2ccccc21`, the IC50 in assay [2] came out at 5000 nM. That is a single-digit micromolar value. On to `Nc1cccc2c1C(=O)/C(=C\c1cc(Br)c(O)c(Br)c1)C2=O`, for which half-maximal inhibition in assay [2] (IC50) was put at 470 nM.

As usually defined, the IC50 is the point on the concentration scale where inhibition reaches its midpoint.

The values above are taken from ChEMBL document CHEMBL1130961, “The development of novel and selective p56lck tyrosine kinase inhibitors” (Bioorg Med Chem Lett, 1998).
